Laboratory results taken from the NIST ThermoML archive (doi:10.1021/je8001128).
± gives the expanded uncertainty stated by the source.

Assays:
[1] = 298.15 K; 101 kPa; Liquid
[2] = wn = mass fraction of the nth substance listed; settings: 298.15 K, 101 kPa, Liquid

CCCCn1cc[n+](C)c1.F[B-](F)(F)F [1-butyl-3-methylimidazolium tetrafluoroborate]
[1]
Settings | mass density [kg/m3] | viscosity [mPa·s]
– | 1211.05 ± 8.6 | 110.3 ± 6.6

CCCCn1cc[n+](C)c1.F[B-](F)(F)F [1-butyl-3-methylimidazolium tetrafluoroborate] + CC(C)=O
[2]
Settings | mass density [kg/m3] | viscosity [mPa·s]
w1 = 0.1724 | 846.15 ± 0.96 | 0.5 ± 0.1
w1 = 0.3033 | 894.39 ± 1.2 | 0.7 ± 0.1
w1 = 0.495 | 970.29 ± 2 | 1.5 ± 0.1
w1 = 0.6276 | 1026.98 ± 3 | 3 ± 0.1
w1 = 0.677 | 1048.91 ± 3.5 | 4 ± 0.1
w1 = 0.7197 | 1068.29 ± 4 | 5.2 ± 0.2
w1 = 0.7603 | 1086.16 ± 4.4 | 6.9 ± 0.2
w1 = 0.7933 | 1102.46 ± 4.9 | 9 ± 0.3
w1 = 0.8267 | 1118.43 ± 5.4 | 12 ± 0.3
w1 = 0.8536 | 1131.38 ± 5.8 | 15.1 ± 0.4
w1 = 0.9024 | 1155.29 ± 6.6 | 25.5 ± 0.7
w1 = 0.939 | 1174.32 ± 7.2 | 40.1 ± 1.2
w1 = 0.9707 | 1193.01 ± 7.9 | 64.7 ± 2
w1 = 1 | 1211.05 ± 8.6 | 110.3 ± 6.6

CCCCn1cc[n+](C)c1.F[B-](F)(F)F [1-butyl-3-methylimidazolium tetrafluoroborate] + CCOC=O
[2], w1 = 1
Settings | mass density [kg/m3] | viscosity [mPa·s]
– | 1211.05 ± 8.6 | 110.3 ± 6.6

CCCCn1cc[n+](C)c1.F[B-](F)(F)F [1-butyl-3-methylimidazolium tetrafluoroborate] + COC(C)=O
[2], w1 = 1
Settings | mass density [kg/m3] | viscosity [mPa·s]
– | 1211.05 ± 8.6 | 110.3 ± 6.6

CCCCn1cc[n+](C)c1.F[B-](F)(F)F [1-butyl-3-methylimidazolium tetrafluoroborate] + COC=O
[2], w1 = 1
Settings | mass density [kg/m3] | viscosity [mPa·s]
– | 1211.05 ± 8.6 | 110.3 ± 6.6

CC(C)=O [acetone] + CCCCn1cc[n+](C)c1.F[B-](F)(F)F
[2], w2 = 0
Settings | mass density [kg/m3] | viscosity [mPa·s]
– | 785.36 ± 0.81 | 0.3 ± 0.1

CCOC=O [ethyl methanoate] + CCCCn1cc[n+](C)c1.F[B-](F)(F)F
[2]
Settings | mass density [kg/m3] | viscosity [mPa·s]
w2 = 0 | 928.48 ± 0.52 | 0.4 ± 0.1
w2 = 0.1384 | 961.2 ± 0.72 | 0.6 ± 0.1
w2 = 0.254 | 989.2 ± 1 | 1 ± 0.1
w2 = 0.4306 | 1040.81 ± 1.9 | 2 ± 0.1
w2 = 0.5721 | 1082.16 ± 3 | 3.8 ± 0.1
w2 = 0.6278 | 1098.26 ± 3.5 | 5.1 ± 0.2
w2 = 0.6729 | 1111.27 ± 4 | 6.5 ± 0.2
w2 = 0.7159 | 1123.69 ± 4.4 | 8.5 ± 0.2
w2 = 0.751 | 1133.73 ± 4.8 | 10.6 ± 0.3
w2 = 0.7847 | 1143.34 ± 5.2 | 13.3 ± 0.4
w2 = 0.8199 | 1153.32 ± 5.7 | 16.9 ± 0.5
w2 = 0.8756 | 1169.16 ± 6.5 | 26.6 ± 0.7
w2 = 0.9231 | 1183.78 ± 7.2 | 43.7 ± 1.3
w2 = 0.9647 | 1198.3 ± 7.9 | 69 ± 2.3

COC(C)=O [methyl ethanoate] + CCCCn1cc[n+](C)c1.F[B-](F)(F)F
[2]
Settings | mass density [kg/m3] | viscosity [mPa·s]
w2 = 0 | 915.97 ± 0.55 | 0.4 ± 0.1
w2 = 0.1386 | 964.5 ± 0.72 | 0.6 ± 0.1
w2 = 0.254 | 996.04 ± 1 | 0.9 ± 0.1
w2 = 0.4326 | 1045.98 ± 2 | 2 ± 0.1
w2 = 0.5703 | 1084.58 ± 3 | 3.6 ± 0.1
w2 = 0.622 | 1098.9 ± 3.5 | 4.7 ± 0.1
w2 = 0.6699 | 1112.24 ± 4 | 6.2 ± 0.2
w2 = 0.7149 | 1124.8 ± 4.4 | 8.2 ± 0.2
w2 = 0.7526 | 1136.01 ± 4.9 | 10.2 ± 0.3
w2 = 0.7875 | 1144.94 ± 5.3 | 13.1 ± 0.4
w2 = 0.8204 | 1153.95 ± 5.7 | 16.3 ± 0.5
w2 = 0.8766 | 1169.55 ± 6.5 | 25.8 ± 0.7
w2 = 0.9243 | 1182.88 ± 7.2 | 40.8 ± 1.2
w2 = 0.9648 | 1197.7 ± 7.9 | 63.7 ± 1.9

COC=O [methyl methanoate] + CCCCn1cc[n+](C)c1.F[B-](F)(F)F
[2]
Settings | mass density [kg/m3] | viscosity [mPa·s]
w2 = 0 | 964.78 ± 0.45 | 0.3 ± 0.1
w2 = 0.1653 | 1011.72 ± 0.78 | 0.5 ± 0.1
w2 = 0.2974 | 1045.55 ± 1.4 | 0.9 ± 0.1
w2 = 0.4895 | 1091.4 ± 2.5 | 1.9 ± 0.1
w2 = 0.6165 | 1121.47 ± 3.6 | 3.5 ± 0.1
w2 = 0.6592 | 1131.2 ± 4 | 4.4 ± 0.1
w2 = 0.7145 | 1143.64 ± 4.6 | 6.3 ± 0.2
w2 = 0.7547 | 1152.73 ± 5.1 | 8.2 ± 0.2
w2 = 0.7899 | 1160.43 ± 5.5 | 10.6 ± 0.3
w2 = 0.8204 | 1167.19 ± 5.9 | 13.7 ± 0.4
w2 = 0.8492 | 1173.37 ± 6.2 | 17.12 ± 0.48
w2 = 0.8977 | 1182.34 ± 6.9 | 28.3 ± 0.8
w2 = 0.9376 | 1192.78 ± 7.5 | 44.2 ± 1.3
w2 = 0.9711 | 1202.31 ± 8 | 68.4 ± 2.2
